Results reported in PubChem BioAssay (NCI).
Where “and” joins values, the source holds several entries; their conditions need not be identical. Identical values can stand only once.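 Interpolation was linear, between the two tested concentrations surrounding the appropriate level; five concentrations were tested over 48 hours in 96-well plates. GI50 marks 50% less growth. TGI is the concentration that stops growth completely.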

Assays:
Experiment in all cases: NCI anticancer screen, dose series, 48 h
NCI-H23 lung = tested on: NCI-H23 lung
COLO 205 colon = tested on: COLO 205 colon
HL-60(TB) leukemia = tested on: HL-60(TB) leukemia
SR leukemia = tested on: SR leukemia
SK-MEL-2 melanoma = tested on: SK-MEL-2 melanoma
HOP-92 NSCLC = tested on: HOP-92 NSCLC
NCI-H522 lung = tested on: NCI-H522 lung
HCT-116 colon = tested on: HCT-116 colon
ACHN renal = tested on: ACHN renal
UACC-62 melanoma = tested on: UACC-62 melanoma

SMILES | TGI (NCI-H23 lung) | TGI (COLO 205 colon) | TGI (HL-60(TB) leukemia) | TGI (SR leukemia) | TGI (SK-MEL-2 melanoma) | TGI (HOP-92 NSCLC) | TGI (NCI-H522 lung) | TGI (HCT-116 colon) | TGI (ACHN renal) | TGI (UACC-62 melanoma) | GI50 (HL-60(TB) leukemia) | GI50 (SR leukemia) | GI50 (SK-MEL-2 melanoma) | GI50 (NCI-H522 lung) | GI50 (HCT-116 colon) | GI50 (UACC-62 melanoma) | GI50 (NCI-H23 lung) | GI50 (ACHN renal) | GI50 (COLO 205 colon) | GI50 (HOP-92 NSCLC)
CCCC[C@H]1C(=O)O[C@H](C)[C@H](NC(=O)c2cccc(NC=O)c2OC)C(=O)O[C@@H](C)[C@@H]1OC(=O)CC(C)C (tested in a mixture with another compound) | 26.5 µM | 27.1 µM | 35.8 µM | 50.5 µM | 29 µM | 27.2 µM | 21 µM | 28.4 µM | 41.4 µM | 18.5 µM |  |  |  |  |  |  |  |  |  | 
O=c1c(-c2ccccc2)c(SCCN2CCOCC2)n(-c2ccccc2)c(=S)n1-c1ccccc1 | > 100 µM | > 100 µM | > 100 µM | > 100 µM | > 100 µM | > 100 µM | > 100 µM |  | > 100 µM | > 100 µM |  |  |  |  |  |  |  |  |  | 
Cc1ccc(C(=O)Nc2ncn(C3CC(O)C(CO)O3)c(=O)n2)cc1 (stereo not drawn) | > 100 µM | > 100 µM |  |  | > 100 µM | > 100 µM | > 100 µM | > 100 µM |  | > 100 µM |  |  |  |  |  |  |  |  |  | 
C=C1CC2C3C=C(C)C4=CC(=O)CC[C@]4(C)C3CC[C@]2(C)[C@@]1(OC(C)=O)C(C)=O (stereo partly drawn) |  |  | 5.53 µM | > 100 µM | > 100 µM |  | > 100 µM | > 100 µM |  | > 100 µM | 2.55 µM | 3.19 µM | > 100 µM | 4.21 µM | 3.38 µM | 3.38 µM |  |  |  | 
Cc1cc2c(cc1Cl)SC(c1ccccc1O)NS2(=O)=O (stereo not drawn) | > 100 µM | 69 µM | > 100 µM | 77.3 µM | > 100 µM | > 100 µM | > 100 µM | > 100 µM | > 100 µM | > 100 µM |  |  |  |  |  |  |  |  |  | 
C[C@H]1CCC/C=C/[C@@H]2C[C@H](O)C[C@H]2[C@H](O)/C=C/C(=O)O1 |  | < 0.01 µM and 0.0354 µM | 1.82 µM and > 15.2 µM |  |  |  | 0.208 µM and 0.213 µM and 0.354 µM | 0.0478 µM and 0.0573 µM and 0.152 µM | 1.39 µM and 2.36 µM |  | 0.0281 µM and 0.167 µM and 0.115 µM | < 0.0146 µM and 0.0808 µM and 0.0415 µM |  | 0.044 µM and 0.0952 µM and 0.115 µM | 0.0115 µM and 0.056 µM |  | 0.0531 µM | 0.0354 µM and 0.0938 µM and 0.0626 µM |  | 
CCCCCCCCCCCCCCCCCC(=O)OCC1OC(OC)C(NC(=O)N(CCCl)N=O)C(O)C1O (stereo not drawn) | 43 µM | > 100 µM |  | > 100 µM | > 100 µM |  | 38.3 µM |  | 47.3 µM | 23.3 µM |  |  |  |  |  |  |  |  |  | 
CCOC(=O)C12CC(C)=C(C)CC1CCCc1ccccc12 (stereo not drawn) | > 100 µM | 33.9 µM | 29.5 µM | 84.4 µM | 31.6 µM | 38.8 µM | 39.5 µM | 34.3 µM | 36 µM | > 100 µM |  |  |  |  |  |  |  |  |  | 
COc1ccc(N=Cc2ccc(N(CCC#N)S(=O)(=O)c3ccccc3)cc2C)cc1 | > 100 µM | 96.3 µM | > 100 µM | > 100 µM | 67.8 µM | > 100 µM | > 100 µM | > 100 µM | > 100 µM | > 100 µM |  |  |  |  |  |  |  |  |  | 
COc1cc(/C=C2\N=C(c3ccccc3)N(c3nc4ccc(Sc5ccccc5)cc4[nH]3)C2=O)cc(OC)c1OC | 97.3 µM | 33 µM | 37.8 µM |  | 33 µM | > 100 µM | 48 µM | 55.2 µM | 57.7 µM | 38.7 µM |  |  |  |  |  |  |  |  |  | 
CCOC(=O)/C(=C\NC(C)(C)CO)c1nc2ccccc2[nH]1 | > 100 µM | > 100 µM | > 100 µM | > 100 µM |  | > 100 µM | > 100 µM | > 100 µM | 97.5 µM | > 100 µM |  |  |  |  |  |  |  |  |  | 
O=c1[nH]c2cc([N+](=O)[O-])c(N/N=C/c3ccc(Cl)cc3Cl)c([N+](=O)[O-])c2[nH]1 | > 100 µM | > 100 µM | > 100 µM |  | > 100 µM | > 100 µM | 94 µM | > 100 µM | > 100 µM | > 100 µM |  |  |  |  |  |  |  |  |  | 
O=C([CH-]C(=O)c1ccccc1)c1ccccc1.O=C([CH-]C(=O)c1ccccc1)c1ccccc1.O=C([CH-]C(=O)c1ccccc1)c1ccccc1.[Cl-].[Hf+4] | 83.4 µM | > 100 µM | > 100 µM |  |  | 36.1 µM | 62.8 µM | 26.1 µM | > 100 µM | > 100 µM | 18.1 µM |  |  | 12.6 µM | 7.33 µM | 14.6 µM | 15.8 µM | 33.9 µM | 23.9 µM | 10.9 µM
CC(C)(C)c1cc(-c2nc3ccc(N4CCN(CCO)CC4)cc3[nH]2)cc(C(C)(C)C)c1O | > 100 µM | 4.78 µM | 4.86 µM | > 100 µM | 5.73 µM | 4.44 µM |  |  | > 100 µM | 3.22 µM | 1.84 µM | 2.77 µM | 2.39 µM |  |  | 1.73 µM | 4.65 µM | 3.39 µM | 2.21 µM | 1.41 µM
O=C1CS(=O)(=O)C(c2cccc(Oc3ccccc3)c2)N1C1CC1 (stereo not drawn) | > 100 µM | 72.9 µM | > 100 µM | > 100 µM | > 100 µM | > 100 µM | > 100 µM | > 100 µM | 80 µM | > 100 µM |  |  |  |  |  |  |  |  |  | 
N#Cc1c(-c2ccc(Cl)cc2)c2c([nH]c1=O)-c1cc([N+](=O)[O-])ccc1CCC2 | 36.2 µM | 49.7 µM | 65.1 µM | > 100 µM | 43.4 µM | 38.5 µM | 41.8 µM | 31.9 µM | > 100 µM | 32.4 µM |  |  |  |  |  |  |  |  |  | 

SMILES | TGI (NCI-H23 lung) | TGI (COLO 205 colon) | TGI (HL-60(TB) leukemia) | TGI (SR leukemia) | TGI (SK-MEL-2 melanoma) | TGI (HOP-92 NSCLC) | TGI (NCI-H522 lung) | TGI (HCT-116 colon) | TGI (ACHN renal) | TGI (UACC-62 melanoma) | GI50 (HL-60(TB) leukemia) | GI50 (SR leukemia) | GI50 (SK-MEL-2 melanoma) | GI50 (NCI-H522 lung) | GI50 (HCT-116 colon) | GI50 (UACC-62 melanoma) | GI50 (NCI-H23 lung) | GI50 (ACHN renal) | GI50 (COLO 205 colon) | GI50 (HOP-92 NSCLC)
COc1cc(C2C(=O)C(Cl)N2Nc2nc(C)cc(=O)[nH]2)cc(OC)c1OC (stereo not drawn) | 50.3 µM |  | 33.7 µM | 77.1 µM | 25.2 µM | 37.3 µM |  | 49.7 µM | 68.5 µM |  |  |  |  |  |  |  |  |  |  | 
CCN(CCO)CCNc1ccc(C)c2sc3ccccc3c(=O)c12 | 21.3 µM | 3.12 µM | 11.3 µM | > 22.4 µM | 9.33 µM | 14.1 µM | 11.4 µM | 7.76 µM | 15 µM | 3.34 µM |  |  |  |  |  |  |  |  |  | 
O=c1[nH]c(=O)n(CCOCP(=O)(O)O)nc1Br | > 100 µM | > 100 µM | > 100 µM | > 100 µM | > 100 µM | > 100 µM | > 100 µM |  | > 100 µM |  |  |  |  |  |  |  |  |  |  | 
Cc1ccc2c3c1[C@@H]1O[C@@H]1c1cccc(c1-3)[C@@H]1O[C@H]21 | 31.8 µM | 33.9 µM |  | 59.3 µM | 33.7 µM | 36.8 µM | 29.6 µM | 27.7 µM | 31 µM | 40.2 µM |  |  |  |  |  |  |  |  |  | 
O=S(=O)(O)c1ccc2c(N=Nc3ccccc3)c(O)ccc2c1 | > 100 µM | > 100 µM | > 100 µM | > 100 µM | > 100 µM | > 100 µM | > 100 µM | > 100 µM | > 100 µM | > 100 µM |  |  |  |  |  |  |  |  |  | 
COc1ccc(N=Nc2c(N)nn(C)c2N)cc1 | > 100 µM | > 100 µM | > 100 µM | > 100 µM | > 100 µM | > 100 µM | > 100 µM | > 100 µM | > 100 µM | > 100 µM |  |  |  |  |  |  |  |  |  | 
CCCCCCCCCCCCSC(=S)c1c(C)[nH]n(CCCCCCCCCCCC)c1=O | > 100 µM | > 100 µM | > 100 µM | > 100 µM | > 100 µM |  | > 100 µM | > 100 µM | > 100 µM | > 100 µM |  |  |  |  |  |  |  |  |  | 
N=C(N)c1ccc(N=Nc2c(O)ccc3cc4c(N=Nc5ccc(C(=N)N)cc5)c(O)ccc4cc23)cc1 |  | > 100 µM | 84.6 µM | > 100 µM | > 100 µM | > 100 µM | > 100 µM | > 100 µM | > 100 µM | > 100 µM |  |  |  |  |  |  |  |  |  | 
CN1NC(c2ccccc2)=C(C#N)C(=O)CC1c1ccc(F)cc1 (stereo not drawn) | > 100 µM | > 100 µM | > 100 µM | > 100 µM | > 100 µM | > 100 µM | > 100 µM | > 100 µM | > 100 µM |  |  |  |  |  |  |  |  |  |  | 
Cn1c(=O)ccc2c(=O)c3ccccc3oc21 | > 100 µM | > 100 µM | > 100 µM | > 100 µM | > 100 µM | > 100 µM | > 100 µM | > 100 µM | > 100 µM | > 100 µM |  |  |  |  |  |  |  |  |  | 
NC(=O)CCSC(CC(=O)c1ccc(Cl)cc1)c1ccc(Cl)cc1 (stereo not drawn) | > 100 µM | > 100 µM | 25.6 µM | 22.9 µM | 69.2 µM | 45.5 µM | 80.3 µM | 70.4 µM | > 100 µM | 56 µM |  |  |  |  |  |  |  |  |  | 
C/C(=C\C(=N\NC(=N)N)c1ccccc1)c1ccccc1 | 4.01 µM | 0.284 µM |  | 6.59 µM |  | 3.22 µM | 1.76 µM | 1.1 µM | 1.17 µM | 3.23 µM |  |  |  |  |  |  |  |  |  | 
Cc1cn(Cc2cn(CC3OC(n4cc(C)c(=O)[nH]c4=O)CC3O)nn2)c(=O)[nH]c1=O (stereo not drawn) | > 100 µM | > 100 µM |  |  | > 100 µM |  |  | > 100 µM | > 100 µM | > 100 µM |  |  |  |  |  |  |  |  |  | 
Cc1cc(=O)n2c3c(c4c(cc13)c(CN(C)C)cc(=O)n4C)OC2 | 50.2 µM | 35.1 µM | > 100 µM | > 100 µM | 41.6 µM | 97.6 µM | 28.4 µM | > 69.5 µM | 39.1 µM | 30.1 µM |  |  |  |  |  |  |  |  |  | 
COP(=O)(OC)[C@H](O)[C@H]1C[C@@H]1c1ccccc1 | > 100 µM | > 100 µM | > 100 µM |  | > 100 µM | > 100 µM | > 100 µM |  | > 100 µM | > 100 µM |  |  |  |  |  |  |  |  |  | 
